Measurements published in article PMC11784145, “Efficacy and in vitro pharmacological assessment of novel N-hydroxypyridinediones as hepatitis B virus ribonuclease H inhibitors” (Antimicrobial Agents and Chemotherapy, 2024).
Values joined by “and” are separate entries in the source; they are usually repeats but may differ in a detail not shown here. Equal entries are not always repeated. Where two headings read alike, the source gives them in different places.

Columns and labels:
[1] = test system: HBV replication (HBV plus-polarity DNA strand); assay: HBV replication inhibition, strand preferential qPCR in hepDES19 cells; format: cell-based, hepatitis B virus; conditions: for EC50: 72 h exposure
Method: HBV replication inhibition was measured in hepDES19 cells following 72 h compound exposure without compound replenishment. EC50 values were determined by HBV plus-polarity strand suppression using a strand preferential qPCR assay, as described previously ([28]). Three or more replicate values were obtained on different days.

[2] = test system: plasma proteins; assay: Plasma protein binding, rapid equilibrium dialysis; format: in vitro ADME, bovine; conditions: 10 µM compound, DMEM-F12 with 10% FBS (0.25 mg/mL BSA), 4 h, 37°C
Method: Plasma protein binding was performed using the Pierce rapid equilibrium dialysis device (Thermo Fisher) per the manufacturer’s instructions, as described ([27]). Briefly, the sample wells contained DMEM-F12 supplemented with 10% FBS spiked with 10 µM compound, and the buffer wells contained phosphate-buffered saline (PBS). The plate was incubated for 4 h at 37°C with shaking, after which 50 µL was retrieved from the buffer and sample wells and added to ice-cold acetonitrile and the internal standard described above. Samples were matrix-matched with PBS supplemented with 10% FBS or PBS alone, respectively, and centrifuged at 4,000 × g for 5 min to pellet plasma proteins. The supernatants were analyzed by LCMS/MS and percent compound bound was determined, as described previously ([27]).

[3] = Microsome stability; format: in vitro ADME, human; conditions: human liver microsomes; for Clearance (intrinsic clearance, Clint) / Half-life: 1 µM compound, 30 min, NADPH
[4] = Solubility limit, turbidimetric assay; format: physicochemical; conditions: upper limit 200 µM
Method: Solubility limits were determined by a turbidimetric assay, as described ([27]), with the solubility limit being defined as the compound concentration where light scattering began to rise. Two or more replicate assays were performed for each compound at each pH on different days.

[5] = test system: HepDES19 cells; conditions: read-out: HepDES19 CC50; 72 h, MTS; highest concentration tested 100 µM; mean ± SD
[6] = Parallel artificial membrane permeability assay (PAMPA); format: in vitro ADME
Method: Compound Papp values were determined by normalizing the experimental compound absorbance to the compounds’ absorbances at equilibrium, membrane porosity, buffer volume, and time (s). Two or more replicate assays were obtained on separate days for each pH.

[7] = biological target: T1, CYP2D6 (Homo sapiens, UniProt P10635); assay: Cytochrome P450 inhibition, Vivid 2D6 EOMCC Blue kit; format: in vitro ADME; conditions: for IC50: dose-response 50 µM to 3 nM, mean ± SD
T1 construct: purchased Thermo Fisher Vivid 2D6 EOMCC Blue
T1 sequence (P10635 whole entry): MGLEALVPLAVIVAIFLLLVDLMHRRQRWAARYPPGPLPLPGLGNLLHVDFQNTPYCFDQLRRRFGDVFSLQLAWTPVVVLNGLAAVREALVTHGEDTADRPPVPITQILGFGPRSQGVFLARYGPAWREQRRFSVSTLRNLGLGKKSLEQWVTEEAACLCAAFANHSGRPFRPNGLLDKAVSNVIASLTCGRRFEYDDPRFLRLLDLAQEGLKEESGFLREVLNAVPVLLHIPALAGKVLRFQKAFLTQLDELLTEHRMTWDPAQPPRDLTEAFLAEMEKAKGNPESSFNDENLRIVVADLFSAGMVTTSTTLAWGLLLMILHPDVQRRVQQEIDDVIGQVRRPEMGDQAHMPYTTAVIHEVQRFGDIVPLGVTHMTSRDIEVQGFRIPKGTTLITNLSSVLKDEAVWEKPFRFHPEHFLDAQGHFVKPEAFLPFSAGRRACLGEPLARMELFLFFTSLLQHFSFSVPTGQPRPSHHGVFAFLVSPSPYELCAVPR
Method: Compound inhibition of Cytochrome P (CYP) 3A4, 2C9, and 2D6 was determined using Vivid CYP450 screening kits (Thermo Fisher) according to the manufacturer’s instructions, as described previously ([27]). The kits employed were: Vivid 3A4 DBOMF Green, 2C9 BOMF Green, and 2D6 EOMCC Blue. Reactions were initiated by addition of the fluorophore-conjugated substrates with Vivid NADP^+ and were conducted at 37°C using either a Biotek Synergy HTX multi-mode plate reader with 485/20 nm excitation and 520/20 nm emission filters (green-fluorescent substrate), or a Tecan Spark plate reader with monochromator settings at 415/20 nm excitation and 460/20 nm emission (blue-fluorescent substrate) defined by the Center Wavelength/band-pass values. Substrate cleavage was detected every 60 s.
Compounds were initially screened against each enzyme at 10 µM and maximum rates of fluorescence in RFU were calculated using the Biotek Gen5 v3.11 software. Percent inhibition of experimental compound reactions was normalized to the rate to DMSO vehicle reactions. Positive controls used were: CYP3A4—ketoconazole (Sigma Aldrich), CYP2C9—sulfaphenazole (Cayman Chemical), and CYP2D6—quinidine (Fisher Scientific). Dose-response curves were generated for compounds that inhibited an enzyme by ≥50% using titrated concentrations of compound (50 µM to 3 nM) or 1% DMSO. IC50 values were determined using the four-parameter log[inhibitor] versus response algorithm in GraphPad Prism. Qualitative screens and dose-response curves were each performed in triplicate on different days.

[8] = test system: MDCK-MDR1 cells; assay: MDCK-MDR1 permeability assay; format: in vitro ADME; conditions: 10 µM compound, 2 h; for Efflux Ratio (Papp B-A/A-B): MDCK-MDR1 cells, actively effluxed if >2
Method: MDCK-MDR1 cells were seeded on 96-well, high protein binding immobilon-P membrane plates (Millipore Sigma) at 2.4 × 10^4 cells per well for 4 days. Media were then decanted, and the cells were equilibrated with Hanks balanced salt solution (HBSS) supplemented with 10 mM CaCl2 and 1 mM MgCl2 for 1 h. Compound (10 µM) was then added to the apical side to assess active transport and to the basolateral side to assess active efflux. The cells were incubated with compound for 2 h with shaking at 37°C. Samples (50 µL) were retrieved from the recipient wells and mixed with 150 µL acetonitrile (ACN) and internal standard (1:1 of 200 ng/mL chloridazon:enalapril). Samples were pelleted at 4,000 × g and the supernatant was analyzed by liquid-chromatography/tandem mass spectrometry (LCMS/MS) analyses. […]. Active efflux was determined by Papp B/A/Papp A/B.
Tight junction formation was assessed by lucifer yellow permeation immediately following sample retrieval. Briefly, lucifer yellow (10 µM) was added to the apical wells and HBSS was added to the basolateral wells for 1 h with shaking at 37°C, after which sample was collected from the basolateral side and read on a Biotek Synergy HTX multi-mode plate reader with 485/20 excitation and 520/20 emission filters defined by the Center Wavelength/band-pass values. The percent lucifer yellow fluorescence was determined by subtracting the HBSS relative fluorescent units (RFU) from the sample RFU and normalizing to the lucifer yellow positive control RFU. Lucifer yellow permeation was determined to be acceptable if ≤3%.

[9] = HBV plus-polarity strand suppression, highest concentration tested 100 µM, mean ± SD, read-out: HepDES19 EC50
[10] = read-out: EC50 against HBV replication
[11] = pH 5 (fed simulated intestinal fluid)
[12] = pH 6.5 (fasted simulated intestinal fluid)

| Compound | HepDES19 SI (CC50/EC50) [1] | EC50 [1, 9] [µM] | EC50 [1, 10] [µM] | Percent bound [2] [%] | Intrinsic clearance (Clint) rate category [3] | Clearance (intrinsic clearance, Clint) [3] [µL/min/mg] | Half-life [3] [min] | Average Sol (solubility limit) [4, 11] [µM] | Sol 1 (solubility limit) ([4]; pH 5, replicate 1) [µM] | Sol 2 (solubility limit) ([4]; pH 5, replicate 2) [µM] | Average Sol (solubility limit) [4, 12] [µM] | Sol 1 (solubility limit) ([4]; pH 6.5, replicate 1) [µM] | Sol 2 (solubility limit) ([4]; pH 6.5, replicate 2) [µM] | Average Sol (solubility limit) ([4]; pH 7.4 (DMEM-F12 with 10% FBS)) [µM] | Sol 1 (solubility limit) ([4]; pH 7.4, replicate 1) [µM] | Sol 2 (solubility limit) ([4]; pH 7.4, replicate 2) [µM] | CC50 [5] [µM] | Avg Papp (PAMPA) ([6]; FeSSIF pH 5) [×10⁻⁶ cm/s] | Interpretation (PAMPA Papp) ([6]; FeSSIF pH 5) | Papp 1 (PAMPA) ([6]; FeSSIF pH 5, replicate 1) [×10⁻⁶ cm/s] | also measured |
| --- | --- | --- | --- | --- | --- | --- | --- | --- | --- | --- | --- | --- | --- | --- | --- | --- | --- | --- | --- | --- | --- |
| CC(=NOCc1cccc(F)c1)c1c(C)cc(=O)n(O)c1O [Compound 1618] | 1,071 | 0.061 ± 0.01 | < 0.4 | 93.5 ± 0.129 | low (low Clint (µL/min/mg protein) rates (<8.6)) | 5.71 | >30 | > 200 | > 200 | > 200 | > 200 | > 200 | > 200 | > 200 | > 200 | > 200 | 73.9 ± 28.6 | 16.4 | H (H: Papp > 1*10-6) | 15.4 | Sol 3 (solubility limit) ([4]; pH 6.5, replicate 3): > 200 µM; Papp 2 (PAMPA) ([6]; FeSSIF pH 5, replicate 2): 17.4 ×10⁻⁶ cm/s; Avg Papp (PAMPA) ([6]; pH 7.4): 0.489 ×10⁻⁶ cm/s; PAMPA apparent permeability (Papp) category ([6]; pH 7.4): low (low (<1 × 10^−6 cm/s)); Papp 1 (PAMPA) ([6]; pH 7.4, replicate 1): 0.395 ×10⁻⁶ cm/s; Papp 2 (PAMPA) ([6]; pH 7.4, replicate 2): 0.582 ×10⁻⁶ cm/s; Selectivity index for CYP (CYP2D6) inhibition versus HBV EC50 [7]: > 150 and 166; IC50 [7]: 10.2 ± 4.1 µM; MDCK-MDR1 Papp category, apical to basolateral (A-B) [8]: low (low (<1*10^−6 cm/s)); MDCK-MDR1 Papp category, basolateral to apical (B-A) [8]: low (low (<1*10^−6 cm/s)); Efflux Ratio (Papp B-A/A-B) [8]: 0.84 |
| CC(=NOCc1ccc(F)c(F)c1)c1c(C)cc(=O)n(O)c1O [Compound 1617] | 157 | 0.35 ± 0.193 | < 0.4 | 100 ± 0.019 | medium (medium Clint rates (≥ 8.6 and ≤47)) | 45.7 | 23.0 | > 200 | > 200 | > 200 | > 200 | > 200 | > 200 | > 200 | > 200 | > 200 | 72.9 ± 37.1 | 15.1 | H (H: Papp > 1*10-6) | 4.04 | Papp 2 (PAMPA) ([6]; FeSSIF pH 5, replicate 2): 26.1 ×10⁻⁶ cm/s; Avg Papp (PAMPA) ([6]; pH 7.4): 0.95 ×10⁻⁶ cm/s; PAMPA apparent permeability (Papp) category ([6]; pH 7.4): low (low (<1 × 10^−6 cm/s)); Papp 1 (PAMPA) ([6]; pH 7.4, replicate 1): 1.46 ×10⁻⁶ cm/s; Papp 2 (PAMPA) ([6]; pH 7.4, replicate 2): 0.478 ×10⁻⁶ cm/s; Papp 3 (PAMPA) ([6]; pH 7.4, replicate 3): 0.911 ×10⁻⁶ cm/s; IC50 [7]: 4.46 µM; MDCK-MDR1 Papp category, apical to basolateral (A-B) [8]: low (low (<1*10^−6 cm/s)); MDCK-MDR1 Papp category, basolateral to apical (B-A) [8]: low (low (<1*10^−6 cm/s)); Efflux Ratio (Papp B-A/A-B) [8]: 1.01 |
